Test results taken from ChEMBL document CHEMBL3885881, “DrugMatrix”.

Organism: Rattus norvegicus
Assay: DrugMatrix - Regimen: Daily Repeat
Type: toxicity, organism-based, Sprague-Dawley
Design: regimen Daily Repeat, gender Male, age 6-8 weeks
Conditions: in vivo, iv, vehicle 100 % SALINE; for ABSOLUTE BASOPHIL / ABSOLUTE EOSINOPHIL / ABSOLUTE LYMPHOCYTE / ABSOLUTE MONOCYTE / ABSOLUTE SEGMENTED NEUTROPHIL / BASOPHIL / EOSINOPHIL / ERYTHROCYTE COUNT / HEMATOCRIT / HEMOGLOBIN / LEUKOCYTE COUNT / LYMPHOCYTE / MEAN CORPUSCULAR HEMOGLOBIN / MEAN CORPUSCULAR HEMOGLOBIN CONCENTRATION / MEAN CORPUSCULAR VOLUME / MONOCYTE / NEUTROPHIL / NUCLEATED RED BLOOD CELLS / PLATELET COUNT: tissue Blood; for ALANINE AMINOTRANSFERASE / ALBUMIN / ALKALINE PHOSPHATASE / ASPARTATE AMINOTRANSFERASE / BLOOD UREA NITROGEN / CARBON DIOXIDE / CHLORIDE / CHOLESTEROL / CREATINE PHOSPHOKINASE / CREATININE / GLUCOSE / LACTATE DEHYDROGENASE / LIPASE / PHOSPHORUS / POTASSIUM / SODIUM / TOTAL BILIRUBIN / TOTAL PROTEIN / URIC ACID: tissue Plasma
[1] = 0 mg/kg, 72 h, dose level Control, time 3 day
[2] = 0 mg/kg, 120 h, dose level Control, time 5 day
[3] = 23 mg/kg, 72 h, dose level High, time 3 day

COC(=O)C[C@](O)(CCC(C)(C)O)C(=O)O[C@@H]1C(OC)=C[C@]23CCCN2CCc2cc4c(cc2[C@H]13)OCO4 [HARRINGTONINE]
ABSOLUTE BASOPHIL [1]: 0 CELLS/uL
ABSOLUTE EOSINOPHIL [1]: 15.33 CELLS/uL
ABSOLUTE LYMPHOCYTE [1]: 9513.5 CELLS/uL
ABSOLUTE MONOCYTE [1]: 94.67 CELLS/uL
ABSOLUTE SEGMENTED NEUTROPHIL [1]: 709.83 CELLS/uL
BASOPHIL [1]: 0%
EOSINOPHIL [1]: 0.17%
ERYTHROCYTE COUNT [1]: 5.63 x10E6/uL
HEMATOCRIT [1]: 34.63%
HEMOGLOBIN [1]: 13.6 G/DL
LEUKOCYTE COUNT [1]: 10.33 x10E3/uL
LYMPHOCYTE [1]: 92%
MEAN CORPUSCULAR HEMOGLOBIN [1]: 24.17 pg
MEAN CORPUSCULAR HEMOGLOBIN CONCENTRATION [1]: 39.28 G/DL
MEAN CORPUSCULAR VOLUME [1]: 61.57 fL
MONOCYTE [1]: 0.83%
NEUTROPHIL [1]: 7%
NUCLEATED RED BLOOD CELLS [1]: 0 /100WBC
PLATELET COUNT [1]: 903.17 x10E3/uL
ALANINE AMINOTRANSFERASE [1]: 49.33 u/L
ALBUMIN [1]: 4.27 G/DL
ALKALINE PHOSPHATASE [1]: 400.83 u/L
ASPARTATE AMINOTRANSFERASE [1]: 77.5 u/L
BLOOD UREA NITROGEN [1]: 16.33 mg/dL
CARBON DIOXIDE [1]: 29.33 mmol/L
CHLORIDE [1]: 99.67 MEQ/L
CHOLESTEROL [1]: 66.67 mg/dL
CREATINE PHOSPHOKINASE [1]: 275.33 u/L
CREATININE [1]: 0.18 mg/dL
GLUCOSE [1]: 163.83 mg/dL
LACTATE DEHYDROGENASE [1]: 125.33 u/L
LIPASE [1]: 10 u/L
PHOSPHORUS [1]: 12.12 mg/dL
POTASSIUM [1]: 6.68 MEQ/L
SODIUM [1]: 144.02 MEQ/L
TOTAL BILIRUBIN [1]: 0.18 mg/dL
TOTAL PROTEIN [1]: 5.87 G/DL
URIC ACID [1]: 1.63 mg/dL
ABSOLUTE BASOPHIL [2]: 0 CELLS/uL
ABSOLUTE EOSINOPHIL [2]: 48.83 CELLS/uL
ABSOLUTE LYMPHOCYTE [2]: 14562 CELLS/uL
ABSOLUTE MONOCYTE [2]: 138.67 CELLS/uL
ABSOLUTE SEGMENTED NEUTROPHIL [2]: 1733.83 CELLS/uL
BASOPHIL [2]: 0%
EOSINOPHIL [2]: 0.33%
ERYTHROCYTE COUNT [2]: 5.89 x10E6/uL
HEMATOCRIT [2]: 36.7%
HEMOGLOBIN [2]: 14.42 G/DL
LEUKOCYTE COUNT [2]: 16.48 x10E3/uL
LYMPHOCYTE [2]: 88.83%
MEAN CORPUSCULAR HEMOGLOBIN [2]: 24.52 pg
MEAN CORPUSCULAR HEMOGLOBIN CONCENTRATION [2]: 39.3 G/DL
MEAN CORPUSCULAR VOLUME [2]: 62.37 fL
MONOCYTE [2]: 0.67%
NEUTROPHIL [2]: 10.17%
NUCLEATED RED BLOOD CELLS [2]: 0 /100WBC
PLATELET COUNT [2]: 1076.5 x10E3/uL
ALANINE AMINOTRANSFERASE [2]: 44.67 u/L
ALBUMIN [2]: 4.23 G/DL
ALKALINE PHOSPHATASE [2]: 357.33 u/L
ASPARTATE AMINOTRANSFERASE [2]: 84.83 u/L
BLOOD UREA NITROGEN [2]: 15.5 mg/dL
CARBON DIOXIDE [2]: 27 mmol/L
CHLORIDE [2]: 99.5 MEQ/L
CHOLESTEROL [2]: 63.67 mg/dL
CREATINE PHOSPHOKINASE [2]: 331.33 u/L
CREATININE [2]: 0.18 mg/dL
GLUCOSE [2]: 167.33 mg/dL
LACTATE DEHYDROGENASE [2]: 320.17 u/L
LIPASE [2]: 9.17 u/L
PHOSPHORUS [2]: 12.05 mg/dL
POTASSIUM [2]: 6.54 MEQ/L
SODIUM [2]: 143.02 MEQ/L
TOTAL BILIRUBIN [2]: 0.2 mg/dL
TOTAL PROTEIN [2]: 6.23 G/DL
URIC ACID [2]: 2.07 mg/dL
ABSOLUTE BASOPHIL [3]: 0 CELLS/uL
ABSOLUTE EOSINOPHIL [3]: 0 CELLS/uL
ABSOLUTE LYMPHOCYTE [3]: 9185.67 CELLS/uL
ABSOLUTE MONOCYTE [3]: 0 CELLS/uL
ABSOLUTE SEGMENTED NEUTROPHIL [3]: 547.67 CELLS/uL
BASOPHIL [3]: 0%
EOSINOPHIL [3]: 0%
ERYTHROCYTE COUNT [3]: 5.37 x10E6/uL
HEMATOCRIT [3]: 32.9%
HEMOGLOBIN [3]: 12.87 G/DL
LEUKOCYTE COUNT [3]: 9.73 x10E3/uL
LYMPHOCYTE [3]: 94.33%
MEAN CORPUSCULAR HEMOGLOBIN [3]: 23.97 pg
MEAN CORPUSCULAR HEMOGLOBIN CONCENTRATION [3]: 39.1 G/DL
MEAN CORPUSCULAR VOLUME [3]: 61.2 fL
MONOCYTE [3]: 0%
NEUTROPHIL [3]: 5.67%
NUCLEATED RED BLOOD CELLS [3]: 0 /100WBC
PLATELET COUNT [3]: 883 x10E3/uL
ALANINE AMINOTRANSFERASE [3]: 44.67 u/L
ALBUMIN [3]: 3.57 G/DL
ALKALINE PHOSPHATASE [3]: 237.67 u/L
ASPARTATE AMINOTRANSFERASE [3]: 76 u/L
BLOOD UREA NITROGEN [3]: 14.67 mg/dL
CARBON DIOXIDE [3]: 24.67 mmol/L
CHLORIDE [3]: 101 MEQ/L
CHOLESTEROL [3]: 58.33 mg/dL
CREATINE PHOSPHOKINASE [3]: 746.33 u/L
CREATININE [3]: 0.17 mg/dL
GLUCOSE [3]: 168.33 mg/dL
LACTATE DEHYDROGENASE [3]: 240.33 u/L
LIPASE [3]: 8 u/L
PHOSPHORUS [3]: 11.7 mg/dL
POTASSIUM [3]: 5.94 MEQ/L
SODIUM [3]: 141.53 MEQ/L
TOTAL BILIRUBIN [3]: 0.2 mg/dL
TOTAL PROTEIN [3]: 5.2 G/DL
URIC ACID [3]: 1.93 mg/dL
